# Earlier results as cited in patent US20260218136A1, “R[…], COMPOSITIONS, AND METHODS OF USE” (priority 2022, published 2026).
# pIC50: −log10 of the molar value.
# Settings: target and test not given; stated in the description of the rapalog bridging factor
smiles,measurement,value
"CO[C@H]1[C@@H](O)[C@H](C)C[C@H](C)/C=C/C=C/C=C(\C)[C@@H](c2c[nH]c3c(C)cccc23)C[C@@H]2CC[C@@H](C)[C@@](O)(O2)C(=O)C(=O)N2CCCC[C@H]2C(=O)O[C@H]([C@H](C)C[C@@H]2CC[C@@H](O)[C@H](OC)C2)C[C@H](O)[C@H](C)/C=C(\C)[C@H]1O [AP21967, C-16-(S)-7-methylindolerapamycin]",pIC50,8.00
